One compound from patent US20230339878A1, “SLC26A3 INHIBITORS AND USE THEREOF” (THE REGENTS OF THE UNIVERSITY OF CALIFORNIA, priority 2018, published 2023) can be followed below.

SMILES strings stand for the structures. “Also recorded” adds a separate entry of the source.

One experiment addresses T1, pendrin (slc26a4) (Mus musculus, UniProt Q9R155).
T1 construct: expressed in transfected cells; host or cells: FRT cells expressing YFP and slc26a4
T1 sequence (Q9R155 1-780): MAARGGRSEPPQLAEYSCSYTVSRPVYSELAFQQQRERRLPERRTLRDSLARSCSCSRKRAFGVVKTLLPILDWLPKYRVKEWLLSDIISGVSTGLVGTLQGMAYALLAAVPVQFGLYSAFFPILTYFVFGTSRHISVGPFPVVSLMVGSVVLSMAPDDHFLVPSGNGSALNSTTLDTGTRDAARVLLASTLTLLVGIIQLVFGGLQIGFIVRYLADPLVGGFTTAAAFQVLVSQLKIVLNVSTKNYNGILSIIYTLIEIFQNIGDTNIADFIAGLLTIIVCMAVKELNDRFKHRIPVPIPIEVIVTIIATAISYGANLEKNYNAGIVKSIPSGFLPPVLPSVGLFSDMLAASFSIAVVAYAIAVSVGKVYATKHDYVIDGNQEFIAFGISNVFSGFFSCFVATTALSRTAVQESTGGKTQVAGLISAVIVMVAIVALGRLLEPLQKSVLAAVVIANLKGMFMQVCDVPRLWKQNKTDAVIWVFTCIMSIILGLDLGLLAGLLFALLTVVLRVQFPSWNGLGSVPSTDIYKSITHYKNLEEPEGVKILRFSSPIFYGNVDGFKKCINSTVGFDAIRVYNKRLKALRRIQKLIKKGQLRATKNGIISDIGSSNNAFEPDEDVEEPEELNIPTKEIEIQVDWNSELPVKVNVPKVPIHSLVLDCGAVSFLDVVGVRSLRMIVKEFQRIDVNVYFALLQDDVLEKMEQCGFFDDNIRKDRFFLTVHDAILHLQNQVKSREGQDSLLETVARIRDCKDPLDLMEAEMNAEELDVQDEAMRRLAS
In words: Selectivity: pendrin-mediated Cl-/I- exchange, YFP assay. Type of experiment: cell-based, murine. The note with it: 10 µM. An excerpt: To investigate Compound A1 selectivity, transport assays were done on a panel of SLC26-family homologs, and other relevant epithelial ion transporters and channels. […] In separate studies, to investigate possible action of Compound A1 on multiple ion transporters and channels in a human epithelium, human bronchial epithelial (HBE) cells were studied by short-circuit current, with successive additions of amiloride (to block the epithelial sodium channel ENaC), forskolin, CFTRinh-172 (to block CFTR), and ATP (to activate the Ca^2+-activated chloride channel, CaCC) (FIG. 5C).
YFP-based assays of CFTR, pendrin and TMEM16A were as described. HEK cells transfected to express YFP and SLC26A3, slc26a6 or slc26a9 were functionally assayed using a Cl^-/I^- exchange protocol. Assays of Cl^-/HCO3^- exchange were done using BCECF as an intracellular pH indicator as described for pendrin. […]
HEK293 cells transfected with pIRES-YFP-slc26a9 were plated in 96-well black-walled, clear-bottom tissue culture plates (Corning Life Sciences, Tewksbury, MA) after coating with FNC Coating Mix (AthenaES, Baltimore, MD). […] Assays of slc26a9-mediated anion exchange were done by initially recording YFP fluorescence prior to addition of 100 µL of NaI-substituted PBS to test wells, with the initial rate of Cl^-/I^- exchange deduced from fluorescence intensity by single exponential regression. […]

For another experiment, the target named is T2, (human) SLC26A3 (Homo sapiens, UniProt P40879).
T2 construct: host or cells: HEK293 cells transduced with lentivirus, then transfected with YFP
T2 sequence (P40879 1-764): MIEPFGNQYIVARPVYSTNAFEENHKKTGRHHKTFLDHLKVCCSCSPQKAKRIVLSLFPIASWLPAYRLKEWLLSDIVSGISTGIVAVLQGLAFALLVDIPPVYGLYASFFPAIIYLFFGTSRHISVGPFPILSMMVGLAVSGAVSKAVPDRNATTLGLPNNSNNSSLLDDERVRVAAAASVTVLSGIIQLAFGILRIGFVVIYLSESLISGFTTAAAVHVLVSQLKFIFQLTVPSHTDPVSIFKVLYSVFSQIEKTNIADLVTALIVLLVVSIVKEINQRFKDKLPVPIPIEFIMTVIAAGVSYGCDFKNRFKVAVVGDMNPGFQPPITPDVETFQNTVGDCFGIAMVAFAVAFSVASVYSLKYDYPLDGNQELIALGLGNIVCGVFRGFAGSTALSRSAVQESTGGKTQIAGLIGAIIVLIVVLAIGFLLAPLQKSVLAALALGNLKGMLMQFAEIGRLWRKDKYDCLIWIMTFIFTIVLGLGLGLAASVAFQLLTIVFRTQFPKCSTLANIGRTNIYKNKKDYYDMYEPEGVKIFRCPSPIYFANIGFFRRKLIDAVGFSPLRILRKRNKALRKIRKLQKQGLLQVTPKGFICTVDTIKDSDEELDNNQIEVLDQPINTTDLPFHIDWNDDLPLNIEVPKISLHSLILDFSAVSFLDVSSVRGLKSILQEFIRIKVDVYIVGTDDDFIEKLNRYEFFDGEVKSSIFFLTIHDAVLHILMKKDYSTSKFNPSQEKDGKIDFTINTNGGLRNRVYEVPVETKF
In words: SLC26A3-mediated Cl-/I- exchange in HEK cells expressing SLC26A3 and YFP. Format: cell-based. How it is done:
Inhibition of (human) SLC26A3 by Compound A1 was also tested, using a HEK cell model expressing SLC26A3 and YFP.
To generate a cell line enriched for expression of SLC26A3, HEK293 cells were transduced with lentiviral particles generated with the pLVX-IRES-mCherry-SLC26A3 transfer vector and then transfected to express YFP.
HEK293 cells transfected with pIRES-YFP-slc26a9 were plated in 96-well black-walled, clear-bottom tissue culture plates (Corning Life Sciences, Tewksbury, MA) after coating with FNC Coating Mix (AthenaES, Baltimore, MD). […] Assays of slc26a9-mediated anion exchange were done by initially recording YFP fluorescence prior to addition of 100 µL of NaI-substituted PBS to test wells, with the initial rate of Cl^-/I^- exchange deduced from fluorescence intensity by single exponential regression. […] To assay SLC26A3 function, HEK293 cells transduced with lentiviral particles generated from the pLVX-IRES-mCherry-SLC26A3 transfer vector were transfected to express YFP for Cl^-/I^- exchange assays as described above; red fluorescence images were acquired to confirm SLC26A3 expression in cells. […]

Regarding `Cc1c(CC(=O)O)c(=O)oc2c(C)c(OCc3cccc(Br)c3)ccc12` [Compound A1], at pendrin (slc26a4), the “effect on Cl-/I- exchange activity of pendrin (slc26a4)” value is “did not alter; also recorded: did not inhibit; also recorded: differences not significant”. Further, the IC50 on (human) SLC26A3 (HEK cells) was about 250 nM. In addition, on (human) SLC26A3 (higher concentrations), the “extent of inhibition of SLC26A3-mediated Cl-/I- exchange” value is “complete inhibition”.
